Drawing on PubChem BioAssay AID1259411 (Chemical Carcinogenesis Research Information System (CCRIS), 2018), this text covers carcinogen call for eight compounds.

For this data set, the system named is rodent carcinogenicity bioassays, tumor incidence. Description: CCRIS carcinogenicity studies. In a few lines:
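NCI-built, expert-reviewed records of carcinogenicity and related test outcomes (mutagenicity, tumor promotion/inhibition) compiled from published and report sources, historical span 1985-2011, not updated.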

Active and inactive are the calls of the source. The rule behind the calls is not given here.

`COc1ccc([C@@H]2CC(=O)c3c(O)cc(O[C@@H]4O[C@H](CO[C@@H]5O[C@@H](C)[C@H](O)[C@@H](O)[C@H]5O)[C@@H](O)[C@H](O)[C@H]4O)cc3O2)cc1OC`: the carcinogen call (Species: MOUSE, Strain/Sex: B6C3F1/FEMALE, Route: ORAL, Dose: 0, 1.25, 5% IN DIET FOR 96 WK FOLLOWED BY BASAL DIET FOR AN ADDITIONAL 8 WK (STUDY DURATION: 104 WK), Dose: 0, 1.25, 5% IN DIET FOR 96 WK FOLLOWED BY BASAL DIET FOR AN ADDITIONAL 8 WK (STUDY DURATION: 104 WK)) is “inactive; negative” and the carcinogen call (Species: MOUSE, Strain/Sex: B6C3F1/MALE, Route: ORAL, Dose: 0, 1.25, 5% IN DIET FOR 96 WK FOLLOWED BY BASAL DIET FOR AN ADDITIONAL 8 WK (STUDY DURATION: 104 WK), Dose: 0, 1.25, 5% IN DIET FOR 96 WK FOLLOWED BY BASAL DIET FOR AN ADDITIONAL 8 WK (STUDY DURATION: 104 WK)) is “inactive; negative”.

Consider `CN(C)CCOC(C)(c1ccccc1)c1ccccn1` (centres undefined), for which the carcinogen call runs as follows: (Species: MOUSE, Strain/Sex: B6C3F1/FEMALE, Route: ORAL, Dose: 0, 190, 375, 750 PPM IN DIET FOR 2 YR (STUDY DURATION: 2 YR), Dose: 0, 190, 375, 750 PPM IN DIET FOR 2 YR (STUDY DURATION: 2 YR), Tumor Site: Type of Lesion: LIVER: HEPATOCELLULAR ADENOMA, THYROID: FOLLICULAR CELL ADENOMA) “active; positive”; (Species: MOUSE, Strain/Sex: B6C3F1/MALE, Route: ORAL, Dose: 0, 190, 375, 750 PPM IN DIET FOR 2 YR (STUDY DURATION: 2 YR), Dose: 0, 190, 375, 750 PPM IN DIET FOR 2 YR (STUDY DURATION: 2 YR), Tumor Site: Type of Lesion: LIVER: HEPATOCELLULAR ADENOMA, THYROID: FOLLICULAR CELL ADENOMA) “active; positive”; (Species: RAT, Strain/Sex: F344/FEMALE, Route: ORAL, Dose: 0, 500, 1000, 2000 PPM IN DIET FOR 2 YR (STUDY DURATION: 2 YR), Dose: 0, 500, 1000, 2000 PPM IN DIET FOR 2 YR (STUDY DURATION: 2 YR)) “inactive; negative”.

As to `CC1CC2OC2CC1COC(=O)C1CC2OC2CC1C` (centres undefined), under “Species: MOUSE, Route: DERMAL, Tumor Site: Type of Lesion: INTEGUMENTARY SYSTEM (SKIN)”, the carcinogen call was “active; positive”.

With `CCOC(=O)NO`, the carcinogen call (Species: MOUSE, Strain/Sex: C57BL, Route: INTRAPERITONEAL, Dose: 1.18 MG/G 10X AT WEEKLY INTERVALS, Tumor Site: Type of Lesion: THYMUS GLAND: LYMPHOSARCOMA, LUNG: ADENOMA) is “active; positive” and the carcinogen call (Species: MOUSE, Strain/Sex: STRAIN-A/FEMALE, Route: INTRAPERITONEAL, Dose: 4000 NMOL/G, Tumor Site: Type of Lesion: LUNG: ADENOMA) is “active; positive”.

Consider `ClC(Cl)C(Cl)Cl`, for which the carcinogen call runs as follows: (Species: MOUSE, Strain/Sex: B6C3F1/FEMALE, Route: GAVAGE, Dose: 0, 142, 282 MG/KG N CORN OIL 5 D/WK FOR 78 WK (STUDY DURATION: 90 WK), Dose: 0, 142, 282 MG/KG N CORN OIL 5 D/WK FOR 78 WK (STUDY DURATION: 90 WK), Tumor Site: Type of Lesion: LIVER: HEPATOCELLULAR CARCINOMA) “active; positive”; (Species: MOUSE, Strain/Sex: B6C3F1/MALE, Route: GAVAGE, Dose: 0, 142, 282 MG/KG IN CORN OIL 5 D/WK FOR 78 WK (STUDY DURATION: 90 WK), Dose: 0, 142, 282 MG/KG IN CORN OIL 5 D/WK FOR 78 WK (STUDY DURATION: 90 WK), Tumor Site: Type of Lesion: LIVER: HEPATOCELLULAR CARCINOMA) “active; positive”; (Species: RAT, Strain/Sex: OSBORNE-MENDEL/FEMALE, Route: GAVAGE, Dose: 0, 43, 76 MG/KG IN CORN OIL 5 D/WK FOR 78 WK (STUDY DURATION: 110 WK), Dose: 0, 43, 76 MG/KG IN CORN OIL 5 D/WK FOR 78 WK (STUDY DURATION: 110 WK)) “inactive; negative”; (Species: RAT, Strain/Sex: OSBORNE-MENDEL/MALE, Route: GAVAGE, Dose: 0, 62, 108 MG/KG IN CORN OIL 5 D/WK FOR 78 WK (STUDY DURATION: 110 WK), Dose: 0, 62, 108 MG/KG IN CORN OIL 5 D/WK FOR 78 WK (STUDY DURATION: 110 WK), Tumor Site: Type of Lesion: LIVER: NEOPLASTIC NODULE, HEPATOCELLULAR CARCINOMA) “equivocal”.

On to `CC(CCl)OC(C)CCl` (centres undefined), for which the carcinogen call (Species: MOUSE, Strain/Sex: B6C3F1/FEMALE, Route: GAVAGE, Dose: 0, 100, 200 MG/KG IN CORN OIL 5/WK FOR 103 WK, Dose: 0, 100, 200 MG/KG IN CORN OIL 5/WK FOR 103 WK, Tumor Site: Type of Lesion: LUNG: ALVEOLAR/BRONCHIOLAR ADENOMA, CARCINOMA) was “active; positive”; the carcinogen call (Species: MOUSE, Strain/Sex: B6C3F1/MALE, Route: GAVAGE, Dose: 0, 100, 200 MG/KG IN CORN OIL 5/WK FOR 103 WK, Dose: 0, 100, 200 MG/KG IN CORN OIL 5/WK FOR 103 WK, Tumor Site: Type of Lesion: LUNG: ALVEOLAR/BRONCHIOLAR ADENOMA, CARCINOMA, LIVER: HEPATOCELLULAR ADENOMA, CARCINOMA) is “active; positive”; the carcinogen call (Species: RAT, Strain/Sex: F344/FEMALE, Route: GAVAGE, Dose: 0, 100, 200 MG/KG IN CORN OIL, Dose: 0, 100, 200 MG/KG IN CORN OIL) was “inactive; negative”; the carcinogen call (Species: RAT, Strain/Sex: F344/MALE, Route: GAVAGE, Dose: 0, 100, 200 MG/KG IN CORN OIL, Dose: 0, 100, 200 MG/KG IN CORN OIL) is “inactive; negative”.

As to `C=CCOC(=O)c1ccccc1C(=O)OCC=C`, the carcinogen call is “equivocal” (Species: MOUSE, Strain/Sex: B6C3F1/FEMALE, Route: GAVAGE, Dose: 0, 150, 300 MG/KG IN CORN OIL FOR 5 D/WK FOR 103 WK (STUDY DURATION: 103 WK), Dose: 0, 150, 300 MG/KG IN CORN OIL FOR 5 D/WK FOR 103 WK (STUDY DURATION: 103 WK), Tumor Site: Type of Lesion: FORESTOMACH: SQUAMOUS CELL PAPILLOMA); “equivocal” (Species: MOUSE, Strain/Sex: B6C3F1/MALE, Route: GAVAGE, Dose: 0, 150, 300 MG/KG IN CORN OIL FOR 5 D/WK FOR 103 WK (STUDY DURATION: 103 WK), Dose: 0, 150, 300 MG/KG IN CORN OIL FOR 5 D/WK FOR 103 WK (STUDY DURATION: 103 WK), Tumor Site: Type of Lesion: FORESTOMACH: SQUAMOUS CELL PAPILLOMA, HEMATOPOIETIC SYSTEM: LYMPHOMA); “equivocal” (Species: RAT, Strain/Sex: F344/FEMALE, Route: GAVAGE, Dose: 0, 50, 100 MG/KG IN CORN OIL 5 D/WK FOR 103 WK (STUDY DURATION: 105 WK), Dose: 0, 50, 100 MG/KG IN CORN OIL 5 D/WK FOR 103 WK (STUDY DURATION: 105 WK), Tumor Site: Type of Lesion: HEMATOPOIETIC SYSTEM: MONONUCLEAR CELL LEUKEMIA); “inactive; negative” (Species: RAT, Strain/Sex: F344/MALE, Route: GAVAGE, Dose: 0, 50, 100 MG/KG IN CORN OIL 5 D/WK FOR 103 WK (STUDY DURATION: 105 WK), Dose: 0, 50, 100 MG/KG IN CORN OIL 5 D/WK FOR 103 WK (STUDY DURATION: 105 WK)).

For the compound `Cc1ccc(S(=O)(=O)NC(=O)NN2CCCCCC2)cc1`, the carcinogen call is “inactive; negative” (Species: MOUSE, Strain/Sex: B6C3F1/FEMALE, Route: ORAL, Dose: 0, 5000, 10000 PPM IN DIET, Dose: 0, 5000, 10000 PPM IN DIET); “inactive; negative” (Species: MOUSE, Strain/Sex: B6C3F1/MALE, Route: ORAL, Dose: 0, 5000, 10000 PPM IN DIET, Dose: 0, 5000, 10000 PPM IN DIET); “inactive; negative” (Species: RAT, Strain/Sex: F344/FEMALE, Route: ORAL, Dose: 0, 5000, 10000 PPM IN DIET, Dose: 0, 5000, 10000 PPM IN DIET); “inactive; negative” (Species: RAT, Strain/Sex: F344/MALE, Route: ORAL, Dose: 0, 5000, 10000 PPM IN DIET, Dose: 0, 5000, 10000 PPM IN DIET).
